# “And” between values parts separate entries of the source, which are not always exact repeats. Equal entries are not always repeated. “Also recorded” adds a separate entry of the source. Marks after values point to notes of the source that are not given here.
# Experiments:
# [1] = test system: MDA-MB-231^GFP cells; assay: In vivo treatment with mini-osmotic pumps (osteolytic bone metastasis model);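 for Mean size of lesion: mean lesion size in relative units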;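 for Size of lesion (per animal): lesion size in relative units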; design: species or system nude rats; details: for X-ray scan of hind legs: lytic lesions (in words): FIG. 5-7; for T/C: vs NSO control; for T/C × 100: mean lesion size vs NSO control rats; for Incidence of metastasis: mini-osmotic pumps s.c., 7 mg/kg daily over four weeks
# [2] = test system: MDA-MB-231^GFP cells; assay: In vivo model with pretreated MDA-MB-231^GFP cells (osteolytic bone metastasis); design: species or system nude rats; lesion size of the rat(s) that developed lytic metastasis, % of control / lesion sizes with respect to all animals of the group compared to untreated control / lesion size of individual animal compared to the untreated control / T/C % (mean lesion size compared to untreated control): concentration or dose not given beside the values; details: for T/C × 100: mean lesion size vs untreated control rats; for rats in which formation of osteolytic metastasis was inhibited (no visible metastasis): cells pre-exposed to ASO, observation period of eight weeks; for Incidence of metastasis: cells pretreated in vitro (10 μM);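 for Mean size of lesion: mean lesion size in relative units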
# [3] = test system: MDA-MB-231 breast cancer cells; assay: Clonogenicity assay (colony formation); type: cell-based, human; details: for inhibition of colony formation (colony growth inhibition): single exposure
# Outline: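 MDA-MB-231 cells given lipofectamine-complexed ASO (5, 10 or 20 μM, 12 h) and/or ErPC3 (10, 14, 20 μM, 24 h), singly or in sequential cycles, then grown 48-72 h. 5000 cells plated in methylcellulose/30% FBS; MTT-stained colonies (≥30 cells) counted after 5-7 days.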
# [4] = observation period 8 weeks, pretreated cells
# [5] = pretreated cells, after eight weeks
# [6] = pretreated cells, after four weeks
substance,measurement,setting,value
5′-GCT-TTC-TTC-GTT-TTC-ATT-TC-3′ [ASO-BSPII-6],X-ray scan of hind legs: lytic lesions (in words),[1]; eight weeks after tumor cell implantation,"clear increase of lytic lesions in the tibia, however new formation of bone tissue at the edges of the lesions"
same,X-ray scan of hind legs: lytic lesions (in words),"[1]; four weeks after tumor cell implantation, therapy from implantation",small lytic lesions in the tibia
same,X-ray scan of hind legs: lytic lesions (in words),[1]; six weeks after tumor cell implantation,visible lytic lesions in the tibia
same,X-ray scan of hind legs: lytic lesions (in words),[1]; ten weeks after tumor cell implantation,lytic lesions are no longer visible in the region of the tibia
same,animals that did not develop metastases,"[1]; mini-osmotic pumps, 12 weeks",one animal out of the five
same,T/C,"[1]; mini-osmotic pumps, week 4",39%
same,T/C,"[1]; mini-osmotic pumps, week 12",2%
same,T/C × 100,[1]; week 4,39
same,Mean size of lesion,"[1]; week 4, mini-osmotic pumps",13 R.U.
same,Size of lesion (per animal),"[1]; week 4, mini-osmotic pumps",11 R.U. and 0 R.U. and 32 R.U. and 8 R.U. and 23 R.U.
same,Incidence of metastasis,[1]; week 4,4/5
same,T/C × 100,[1]; week 6,18
same,Mean size of lesion,"[1]; week 6, mini-osmotic pumps",32 R.U.
same,Size of lesion (per animal),"[1]; week 6, mini-osmotic pumps",39 R.U. and 0 R.U. (2×) and 83 R.U. and 37 R.U.
same,Incidence of metastasis,[1]; week 6,3/5
same,T/C × 100,[1]; week 8,11
same,Mean size of lesion,"[1]; week 8, mini-osmotic pumps",29 R.U.
same,Size of lesion (per animal),"[1]; week 8, mini-osmotic pumps",52 R.U. and 0 R.U. (2×) and 50 R.U. and 43 R.U.
same,Incidence of metastasis,[1]; week 8,3/5
same,T/C × 100,[1]; week 9,7
same,Mean size of lesion,"[1]; week 9, mini-osmotic pumps",28 R.U.
same,Size of lesion (per animal),"[1]; week 9, mini-osmotic pumps",28 R.U. and 0 R.U. (2×) and 36 R.U. and 78 R.U.
same,Incidence of metastasis,[1]; week 9,3/5
same,T/C × 100,[1]; week 10,5
same,Mean size of lesion,"[1]; week 10, mini-osmotic pumps",20 R.U.
same,Size of lesion (per animal),"[1]; week 10, mini-osmotic pumps",17 R.U. and 0 R.U. (2×) and 29 R.U. and 52 R.U.
same,Incidence of metastasis,[1]; week 10,3/5
same,T/C × 100,[1]; week 12,2
same,Mean size of lesion,"[1]; week 12, mini-osmotic pumps",9 R.U.
same,Size of lesion (per animal),"[1]; week 12, mini-osmotic pumps",0 R.U. (3×) and 18 R.U. and 29 R.U.
same,Incidence of metastasis,[1]; week 12,2/5
same,T/C × 100,[2]; 4 weeks,1.6
same,T/C × 100,[2]; 6 weeks,2.9
same,T/C × 100,[2]; 8 weeks,9.1
same,X-ray scan of hind legs: osteolytic lesions (in words),"[2]; FIG. 3 and FIG. 4, one rat each, cells pre-exposed",a minute osteolytic lesion in the tibia only; also recorded: a small lesion in the tibia
same,rats in which formation of osteolytic metastasis was inhibited (no visible metastasis),[2],two out of four
same,rats in which formation of osteolytic metastasis was inhibited (no visible metastasis),[2]; listed as ASO-BSPII-06,two of four and 2 of 4
same,Incidence of metastasis,[2]; observation period 4 weeks,1/4
same,Mean size of lesion,"[2]; observation period 4 weeks, pretreated cells",3.5 R.U.
same,Incidence of metastasis,[2]; observation period 6 weeks,1/4
same,Mean size of lesion,"[2]; observation period 6 weeks, pretreated cells",8.8 R.U.
same,Incidence of metastasis,[2]; observation period 8 weeks,2/4
same,Mean size of lesion,[2]; [4],31.5 R.U.
same,Size of lesion (per animal),[2]; [4],106^5) R.U.
same,T/C % (mean lesion size compared to untreated control),[2]; [5],9.1%
same,lesion size of individual animal compared to the untreated control,[2]; [5],about 30% and 6%
same,animals in which formation of lytic metastases was prevented,[2]; [6],three out of four
same,lesion size of individual animal compared to the untreated control,[2]; [6],6.4%
same,lesion size of individual animal compared to the untreated control,"[2]; pretreated cells, after six weeks",about 12%
same,lesion size of the rat(s) that developed lytic metastasis,"[2]; pretreated cells, week 4",14 R.U.
same,"lesion size of the rat(s) that developed lytic metastasis, % of control","[2]; pretreated cells, week 4, vs mean of the two control groups (197 R.U.)",7%
same,lesion size of the rat(s) that developed lytic metastasis,"[2]; pretreated cells, week 8",63 R.U.
same,"lesion size of the rat(s) that developed lytic metastasis, % of control","[2]; pretreated cells, week 8, vs mean of the two control groups (416 R.U.)",15%
same,% Control,"[3]; Exp. III a, repeated exposure 2 × 5 μM",91%
same,Mean colony no.,"[3]; Exp. III a, repeated exposure 2 × 5 μM, control 456","415^6,8)"
same,% Control,"[3]; Exp. III a, repeated exposure 2 × 10 μM",82%
same,Mean colony no.,"[3]; Exp. III a, repeated exposure 2 × 10 μM, control 456",373^8)
same,% Control,"[3]; Exp. III a, repeated exposure 2 × 20 μM",72%
same,Mean colony no.,"[3]; Exp. III a, repeated exposure 2 × 20 μM, control 456",326^8)
same,% Control,"[3]; Experiment I, single treatment, 5 μM",89%
same,Mean colony no.,"[3]; Experiment I, single treatment, 5 μM, control 778",692^6)
same,% Control,"[3]; Experiment I, single treatment, 10 μM",81%
same,Mean colony no.,"[3]; Experiment I, single treatment, 10 μM, control 778",632^7)
same,% Control,"[3]; Experiment I, single treatment, 20 μM",61%
same,Mean colony no.,"[3]; Experiment I, single treatment, 20 μM, control 778",478
same,% Control,"[3]; Experiment III b, repeated exposure 2 × 5 μM",70%
same,Mean colony no.,"[3]; Experiment III b, repeated exposure 2 × 5 μM, control 517","363^6,8)"
same,% Control,"[3]; Experiment III b, repeated exposure 2 × 10 μM",55%
same,Mean colony no.,"[3]; Experiment III b, repeated exposure 2 × 10 μM, control 517",282^8)
same,% Control,"[3]; Experiment III b, repeated exposure 2 × 20 μM",49%
same,Mean colony no.,"[3]; Experiment III b, repeated exposure 2 × 20 μM, control 517",251^8)
same,inhibition of colony formation (colony growth inhibition),[3]; 5 μM,11%
same,inhibition of colony formation (colony growth inhibition),[3]; 10 μM,19%
same,inhibition of colony formation (colony growth inhibition),[3]; 20 μM,39%
same,"repeated exposure compared with single exposure, colony formation (in words)",[3]; twofold vs single ASO exposure,no increased inhibition of colony formation as compared with single exposure
